Measurements from paper doi:10.1101/2024.08.19.608619, “Discovery of potent SARS-CoV-2 nsp3 macrodomain inhibitors uncovers lack of translation to cellular antiviral response” (bioRxiv, 2024).
Converted amounts (≈) assume the structure as drawn.

Key:
[1] = Hepatic microsomal stability, HLM; format: in vitro ADME, human; conditions: In vitro human liver microsomal stability; for perc_remaining_no_cofactor: no cofactor
LogD = conditions: pH 7.4; In vitro LogD
[2] = In vitro kinetic solubility; conditions: In vitro kinetic solubility, ph 7.4
[3] = Hepatic microsomal stability, MLM; format: in vitro ADME
[4] = Permeability Papp (AB) MDR1/MDCKII; conditions: In vitro MDR1-MDCKII permeability; for papp_a_to_b_mean: A to B; for perc_recovery_a_to_b_mean: recovery A to B
[5] = In vitro mouse liver microsomal stability
[6] = In vitro mouse liver microsomal stability, no cofactor
[7] = In vitro mouse liver microsomal stability; no cofactor

Row | Structure (SMILES) | clint [1] [µL/min/mg] | perc_remaining [1] [%] | t_half [1] [min] | perc_remaining_no_cofactor [1] [%] | logd (LogD) | solubility_mean [2] [µM] | clint [3, 5] [µL/min/mg] | perc_remaining [3, 5] [%] | t_half [3, 5] [min] | perc_remaining_no_cofactor [3, 6] [%] | papp_a_to_b_mean ([4]; no inhibitor) [×10⁻⁶ cm/s] | perc_recovery_a_to_b_mean ([4]; no inhibitor) [%] | perc_remaining_no_cofactor [3, 7] [%] | papp_a_to_b_mean ([4]; mean) [×10⁻⁶ cm/s] | perc_recovery_a_to_b_mean ([4]; mean) [%]
1 | CC(C)[C@H](Nc1ncnc2[nH]c(-c3cnn(CC(=O)N(C)C)c3)cc12)c1ccc2c(c1)OCCO2 (single isomer, unassigned) [ASAP-0013837] | 108.0 | 18.0 | 15.4 | 114.0 | 3.0 | 205 (≈ 97.5 µg/mL) | 45.0 | 48.0 | 36.8 | 114.0 | 1.62 | 87.9 | – | – | –
2 | COc1ccc2c(c1)CCN(c1ncnc3[nH]ccc13)[C@H]2C(C)C (racemic) [ASAP-0000502] | 60.0 | 38.0 | 27.8 | 103.0 | 4.33 | 14 (≈ 4.51 µg/mL) | 321.0 | 1.0 | 5.2 | – | – | – | 83.0 | 7.0 | 32.0
3 | COc1ccc(C(NC(=O)c2ncnc3[nH]ccc23)C(C)c2nnn[nH]2)cc1 (mixture of isomers) [ASAP-0010744] | 2.0 | 92.0 | 798.7 | 103.0 | 0.0 | ≥ 400 | 1.0 | 99.0 | 2882.2 | 92.0 | 1.13 | 93.6 | – | – | –
4 | CC(C(=O)O)C(NC(=O)c1ncnc2[nH]ccc12)c1ccc(Br)cc1 (mixture of isomers) [ASAP-0008445] | 5.0 | 103.0 | 338.5 | 110.0 | 0.5 | 386 | 4.0 | 94.0 | 433.2 | 109.0 | – | – | – | 1.4 | 93.4
5 | CCNC(=O)c1cc2c(N[C@H](c3ccc4c(c3)S(=O)(=O)CCC4)C(C)C)ncnc2[nH]1 [ASAP-0012325] | 109.0 | 17.0 | 15.4 | 102.0 | 2.7 | 337 (≈ 149 µg/mL) | 64.0 | 34.0 | 26.3 | 97.0 | 0.717 | 88.3 | – | – | –
6 | CC(C)[C@H](Nc1ncnc2[nH]cc(C(=O)NC3CC3)c12)c1ccc2c(c1)S(=O)(=O)CCC2 (single isomer, unassigned) [ASAP-0011247] | 5.0 | 90.0 | 320.1 | 112.0 | 3.0 | 19 (≈ 8.62 µg/mL) | 42.0 | 50.0 | 39.5 | 102.0 | 1.27 | 71.5 | – | – | –
7 | CNC(=O)c1cc2c(N[C@@H](c3ccc4c(c3)NC(=O)CO4)C(C)C)ncnc2[nH]1 [ASAP-0011219] | 175.0 | 6.0 | 9.6 | 96.0 | 2.9 | 380 (≈ 150 µg/mL) | 33.0 | 57.0 | 51.2 | 99.0 | – | – | – | 1.21 | 105.0
8 | CNC(=O)c1c[nH]c2ncnc(N[C@@H](c3ccc4c(c3)OCCO4)C(C)C)c12 [ASAP-0008406] | 79.0 | 27.0 | 21.2 | 113.0 | 3.6 | 319 (≈ 122 µg/mL) | 88.0 | 20.0 | 19.0 | – | – | – | 95.0 | 16.2 | 92.4
9 | CC(C)[C@@H](Nc1ncnc2[nH]c(-c3cnn(C)c3)cc12)c1ccc2c(c1)S(=O)(=O)CCC2 [ASAP-0008678] | 141.0 | 10.0 | 11.9 | 102.0 | 3.3 | 94 (≈ 42.4 µg/mL) | 155.0 | 7.0 | 10.8 | – | – | – | 102.0 | 1.73 | 85.6
10 | CC(C)[C@H](Nc1ncnc(N)c1Cl)c1ccc2c(c1)S(=O)(=O)CCC2 (racemic) [ASAP-0010739] | 79.0 | 27.0 | 21.0 | 101.0 | 2.4 | ≥ 400 | 204.0 | 4.0 | 8.2 | 102.0 | – | – | – | 10.1 | 58.5
11 | O=C(Nc1cccc2c(C(=O)N[C@H]3c4ccccc4C[C@H]3C(=O)O)c[nH]c12)NC1CC1 (racemic) [ASAP-0000627] | 6.0 | 88.0 | 279.8 | 86.0 | -0.05 | ≥ 400 | 4.0 | 95.0 | 453.6 | – | – | – | 105.0 | 1.8 | 81.0
12 | CC(C)[C@H](Nc1ncnc2[nH]c(-c3cnn(CC(=O)N(C)C)c3)cc12)c1ccc2c(c1)S(=O)(=O)CCC2 [ASAP-0013744] | 92.0 | 22.0 | 18.1 | 97.0 | 2.2 | 361 (≈ 188 µg/mL) | 124.0 | 13.0 | 13.5 | 98.0 | 1.17 | 116.0 | – | – | –
13 | CC(C)[C@H](Nc1ncnc2[nH]cc(C(=O)NC3CC3)c12)c1ccc2c(c1)S(=O)(=O)CCC2 (racemic) [ASAP-0008647] | 29.0 | 57.0 | 57.0 | 90.0 | 3.1 | 257 (≈ 117 µg/mL) | 234.0 | 2.0 | 7.2 | 101.0 | – | – | – | 2.46 | 73.4
